Measured values reported in US20030032003A1, “IN VIVO SELECTION” (priority 2000, published 2003).

Assays:
[1] = system: wildtype mice; test: Biochemical analysis of mouse serum after G418; type: in vivo; conditions: 335 mg/kg single i.p., serum 48 hrs after treatment
Description: (§1) BUN and CRE levels are diagnostic markers of kidney damage. […] In these transgenic animals G418 at the highest dose (1140 mg/kg) caused immediate toxicity resulting in death due to breath failure within 10 minutes after injection.

[2] = system: neo^R mice; test: Biochemical analysis of mouse serum after G418; type: in vivo; conditions: 335 mg/kg single i.p., serum 48 hrs after treatment
Description: as §1

[3] = system: Neo −/− mice; test: Acute toxicity of G418; type: in vivo, mouse; conditions: 10 days
Description: (§2) As in Example 1, applicants characterized the tissue specific expression of neoR mRNA and furthermore, investigated acute tissue specific toxicities of G418 in neo^R+/+ mice. The neoR mRNA reached highest levels in testis, intermediate in brain, kidney and liver. Low levels were detected in heart skeletal muscle and lungs and almost undetectable low levels in spleen. For acute toxicity determination the animals were treated with a single dose i.p. at concentrations starting at 47 mg/kg and increased thereafter by approximately 50% for each consecutive dose. The neoR expression in transgenic animals caused 10-fold increase of the approximate lethal dose of G418 (Table 4).

[4] = system: neo +/+ transgenic mice; test: Acute toxicity of G418; type: in vivo, mouse; conditions: for survival / body weight, percentage of the body weight before the experiment: Neo +/+, 10 days
Description: as §2

CN[C@@H]1[C@@H](O)[C@@H](O[C@@H]2[C@@H](O)[C@H](O[C@H]3O[C@H]([C@@H](C)O)[C@@H](O)[C@H](O)[C@H]3N)[C@@H](N)C[C@H]2N)OC[C@]1(C)O [G418] showed an ALT [1] of 102.0 ± 9.4 u/l, a BUN [1] of 96.0 ± 14.2 mg/dL and a CRE [1] of 0.67 ± 0.05 mg/dL. The ALT [2] was 54.3 ± 14.4 u/l, the BUN [2] was 22.3 ± 0.9 mg/dL and the CRE [2] was 0.23 ± 0.05 mg/dL. For the same compound, the “body weight, percentage of the body weight before the experiment” value (“body weight, percentage” below) ([3]; 47 mg/kg single i.p.) was 101 ± 1%, the survival ([3]; 47 mg/kg single i.p.) was “surv (surv, animals survived the 10 day period)” and the “body weight, percentage” value ([3]; 68 mg/kg single i.p.) was 104 ± 4%. The survival ([3]; 68 mg/kg single i.p.) was “surv (surv, animals survived the 10 day period)”, the “body weight, percentage” value ([3]; 103 mg/kg single i.p.) was 73 ± 6% and the survival ([3]; 103 mg/kg single i.p.) was 8 days. For the same compound, the “body weight, percentage” value ([3]; 153 mg/kg single i.p.) was 73 ± 5%, the survival ([3]; 153 mg/kg single i.p.) was 8 days and the “body weight, percentage” value ([3]; 230 mg/kg single i.p.) was 85 ± 2%. The survival ([3]; 230 mg/kg single i.p.) was 4 days, the “body weight, percentage” value ([3]; 345 mg/kg single i.p.) was 97 ± 1% and the survival ([3]; 345 mg/kg single i.p.) was 1 days. For the same compound, the “body weight, percentage” value ([3]; 480 mg/kg single i.p.) was 99 ± 1%, the survival ([3]; 480 mg/kg single i.p.) was 1 days and the “body weight, percentage” value ([3]; 778 mg/kg single i.p.) was 100 ± 2%. The survival ([3]; 778 mg/kg single i.p.) was 1 days, the survival ([4]; 47 mg/kg single i.p.) was “surv (surv, animals survived the 10 day period)” and the “body weight, percentage” value ([4]; 68 mg/kg single i.p.) was 100 ± 1%. For the same compound, the survival ([4]; 68 mg/kg single i.p.) was “surv (surv, animals survived the 10 day period)”, the survival ([4]; 103 mg/kg single i.p.) was “surv (surv, animals survived the 10 day period)” and the “body weight, percentage” value ([4]; 153 mg/kg single i.p.) was 102 ± 3%. For the same compound, the survival ([4]; 153 mg/kg single i.p.) was “surv (surv, animals survived the 10 day period)”, the “body weight, percentage” value ([4]; 230 mg/kg single i.p.) was 100 ± 2% and the survival ([4]; 230 mg/kg single i.p.) was “surv (surv, animals survived the 10 day period)”. The “body weight, percentage” value ([4]; 345 mg/kg single i.p.) was 98 ± 4%, the survival ([4]; 345 mg/kg single i.p.) was “surv (surv, animals survived the 10 day period)” and the “body weight, percentage” value ([4]; 480 mg/kg single i.p.) was 100 ± 1%. For the same compound, the survival ([4]; 480 mg/kg single i.p.) was “surv (surv, animals survived the 10 day period)”, the “body weight, percentage” value ([4]; 778 mg/kg single i.p.) was 101 ± 1% and the survival ([4]; 778 mg/kg single i.p.) was “surv (surv, animals survived the 10 day period)”. For the same compound, the “body weight, percentage” value ([4]; 1140 mg/kg single i.p.) was 100 ± 1%, the survival ([4]; 1140 mg/kg single i.p.) was 1 days and the “increase of the approximate lethal dose” value ([4]; neoR expression in transgenic animals vs wild type) was 10 fold. For the same compound, the “time to death due to breath failure after injection” value ([4]; neo^R transgenic animals, highest dose 1140 mg/kg) was at most 10 min.
